Where “and” joins values, the source holds several entries; their conditions need not be identical. Equal values may be shown once. Read-outs that look alike come from different tables or passages of the source.
What was measured:
OCI-AML5 cells = assay: Dose-response proliferative assay in OCI-AML5 (4 days, CellTiterGlo); type: cell-based, H. sapiens; conditions: OCI-AML5 cells; read-out: IC50 in AML5
Summary of the method: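 OCI-AML5 cells in αMEM, 10% heat-inactivated FBS plus 10 ng/mL GM-CSF, 300 cells/well, exposed to 8-point 1:4 serial dilutions (10 μM down to 0.5 nM). Viability read after 4 days in culture at 37 °C, 5% CO2.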

cyclin KeGFP = assay: Cyclin KeGFP reporter system (eGFP/mCherry MFI by flow cytometry);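 as to % degradation cyclin K-eGFP: 10 μM compound for 3 h relative to DMSO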; type: cell-based, H. sapiens
Summary of the method: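 OCI-AML5 clone G7 carrying lentiviral cyclin KeGFP/mCherry reporter. eGFP and mCherry geometric MFI measured by flow cytometry; eGFP/mCherry ratio normalized to DMSO-treated cells.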

primary AML specimens = assay: Dose-response assays in primary AML specimens (6 days, CellTiterGlo); type: cell-based, human; conditions: 6 days, read-out: IC50
Description: Freshly thawed primary AML specimens were used for chemical screens. Cryopreserved cells were thawed at 37 °C in IMDM containing 20% FBS and DNase I (100 μg/mL). Cells were resuspended in IMDM supplemented with 15% BIT (BSA, insulin, transferrin; StemCell Technologies), 100 ng/mL SCF, 50 ng/mL FLT3L, 20 ng/mL IL3, 20 ng/mL G-CSF, 10^−4 mol/L b-mercaptoethanol, gentamicin (50 μg/mL), ciprofloxacin (10 μg/mL), SR1 (500 nmol/L) and UM729 (500 nmol/L). Cells were plated in 384-well white plates, 5000 cells per well in 50 μL. Compounds were dissolved in DMSO, diluted in media immediately before use and added to seeded cells at the unique concentration of 1 μM. Control wells received DMSO (0.1%) only. Cell viability was evaluated after 6 days in culture using the CellTiterGlo assay according to the manufacturer’s instruction. Percentage of inhibition for dose response curves was calculated as 100 – (100 × (mean luminescence [compound]/mean luminescence [DMSO])). Dose response curves were generated using nonlinear regression in GraphPad Prism version.
Dose-response assays in primary AML specimens were performed as in chemical screen (see above) with the exception that compounds were tested in serial dilution (8 dilutions, 1:4, 10 μM down to 0.5 nM). Dose-response assays in OCI-AML5 cell line were conducted similarly with the following modifications: 300 cells per well were seeded in 50 μL of cell line media and cell viability was evaluated after 4 days in culture.

[1] = tested on: OCI-AML5 cells expressing shRNAs targeting CDK1, 2, 4, 7, 9, cyclin K; assay: Dose response in OCI-AML5 expressing shRNAs targeting CDK1, 2, 4, 7, 9, cyclin K or control; type: cell-based, H. sapiens; conditions: for IC50: OCI-AML5, 4 days
CDK12/Cyclin K = biological target: T1, CDK12/Cyclin K (Homo sapiens, UniProt Q9NYV4); assay: CDK12/CyclinK in vitro kinase assay (BPS kit, Kinase Glo MAX); type: biochemical; conditions: in % (unit assumed)
T1 construct: purchased BPS Bioscience 78298
T1 sequence (Q9NYV4 whole entry): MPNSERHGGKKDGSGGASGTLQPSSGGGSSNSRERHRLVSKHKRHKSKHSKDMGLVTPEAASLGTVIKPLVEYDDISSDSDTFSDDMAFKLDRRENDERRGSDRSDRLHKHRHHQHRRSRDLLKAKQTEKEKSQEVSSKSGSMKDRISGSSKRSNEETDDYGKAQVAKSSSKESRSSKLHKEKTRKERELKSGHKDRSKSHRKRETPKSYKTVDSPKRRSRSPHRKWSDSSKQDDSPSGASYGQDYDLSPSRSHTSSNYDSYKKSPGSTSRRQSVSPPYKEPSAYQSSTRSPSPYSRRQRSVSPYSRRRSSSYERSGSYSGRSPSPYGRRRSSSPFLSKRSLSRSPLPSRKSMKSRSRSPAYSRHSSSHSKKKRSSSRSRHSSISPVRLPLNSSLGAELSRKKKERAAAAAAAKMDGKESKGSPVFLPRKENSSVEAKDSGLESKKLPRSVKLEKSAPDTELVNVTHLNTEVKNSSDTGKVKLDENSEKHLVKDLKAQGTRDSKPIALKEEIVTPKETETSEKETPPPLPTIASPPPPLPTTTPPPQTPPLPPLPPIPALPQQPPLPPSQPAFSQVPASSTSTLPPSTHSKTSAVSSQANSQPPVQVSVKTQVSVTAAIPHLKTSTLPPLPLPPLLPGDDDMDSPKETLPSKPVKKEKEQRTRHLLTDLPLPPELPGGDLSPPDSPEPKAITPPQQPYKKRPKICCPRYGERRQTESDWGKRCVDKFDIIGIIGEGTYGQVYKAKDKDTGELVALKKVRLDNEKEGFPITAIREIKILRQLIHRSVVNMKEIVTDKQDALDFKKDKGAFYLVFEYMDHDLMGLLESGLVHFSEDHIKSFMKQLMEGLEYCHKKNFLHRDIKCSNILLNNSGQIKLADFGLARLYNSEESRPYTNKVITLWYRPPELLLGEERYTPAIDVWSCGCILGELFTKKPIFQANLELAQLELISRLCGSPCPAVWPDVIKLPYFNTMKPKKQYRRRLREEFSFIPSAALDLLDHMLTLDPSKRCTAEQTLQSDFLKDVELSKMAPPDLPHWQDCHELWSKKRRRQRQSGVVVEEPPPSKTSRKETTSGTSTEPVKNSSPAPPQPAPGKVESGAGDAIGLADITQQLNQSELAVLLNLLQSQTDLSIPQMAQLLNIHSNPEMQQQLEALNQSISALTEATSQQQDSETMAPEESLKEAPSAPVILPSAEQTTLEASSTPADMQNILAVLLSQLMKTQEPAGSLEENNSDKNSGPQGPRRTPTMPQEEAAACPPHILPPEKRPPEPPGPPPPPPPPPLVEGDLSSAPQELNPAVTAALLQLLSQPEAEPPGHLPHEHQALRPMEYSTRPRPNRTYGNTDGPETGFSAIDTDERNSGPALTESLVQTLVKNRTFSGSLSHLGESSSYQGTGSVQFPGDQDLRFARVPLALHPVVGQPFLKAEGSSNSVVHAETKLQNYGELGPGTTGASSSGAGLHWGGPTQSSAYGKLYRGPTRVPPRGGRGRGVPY
T1 sequence (O75909 whole entry partner): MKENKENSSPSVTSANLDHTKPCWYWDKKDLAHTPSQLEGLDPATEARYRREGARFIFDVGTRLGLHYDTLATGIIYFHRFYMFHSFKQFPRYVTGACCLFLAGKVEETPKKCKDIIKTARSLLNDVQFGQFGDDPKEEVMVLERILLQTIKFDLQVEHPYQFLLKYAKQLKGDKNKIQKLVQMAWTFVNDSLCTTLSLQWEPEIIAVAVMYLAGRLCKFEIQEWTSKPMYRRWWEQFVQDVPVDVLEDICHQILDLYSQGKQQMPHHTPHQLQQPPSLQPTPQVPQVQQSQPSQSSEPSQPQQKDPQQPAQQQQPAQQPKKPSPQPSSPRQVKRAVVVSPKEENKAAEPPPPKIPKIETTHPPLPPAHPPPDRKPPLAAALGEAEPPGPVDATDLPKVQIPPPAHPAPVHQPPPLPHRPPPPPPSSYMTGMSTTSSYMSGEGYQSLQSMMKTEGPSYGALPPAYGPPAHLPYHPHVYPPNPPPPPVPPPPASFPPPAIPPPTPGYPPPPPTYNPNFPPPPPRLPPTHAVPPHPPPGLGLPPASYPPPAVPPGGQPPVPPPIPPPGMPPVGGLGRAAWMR
Description: (§1) Kinase activity was assessed using the kinase assay kits from BPS Bioscience for CDK1, CDK9 and CDK12 with Kinase Glo MAX in duplicates. Compounds were tested at a single concentration of 1 μM for CDK1 and CDK9 activity, and in a dilution ranging from 0.64 nM to 50 μM for CDK12 activity. Chemiluminescence was read using the Neo Synergy BioTek plate reader.

CDK9/CyclinT = biological target: T2, CDK9/CyclinT (Homo sapiens, UniProt P50750); assay: CDK9/CyclinT in vitro kinase activity, single concentration 1 μM; type: biochemical; conditions: single concentration 1 μM
T2 construct: purchased BPS Bioscience 79628
T2 sequence (P50750 whole entry): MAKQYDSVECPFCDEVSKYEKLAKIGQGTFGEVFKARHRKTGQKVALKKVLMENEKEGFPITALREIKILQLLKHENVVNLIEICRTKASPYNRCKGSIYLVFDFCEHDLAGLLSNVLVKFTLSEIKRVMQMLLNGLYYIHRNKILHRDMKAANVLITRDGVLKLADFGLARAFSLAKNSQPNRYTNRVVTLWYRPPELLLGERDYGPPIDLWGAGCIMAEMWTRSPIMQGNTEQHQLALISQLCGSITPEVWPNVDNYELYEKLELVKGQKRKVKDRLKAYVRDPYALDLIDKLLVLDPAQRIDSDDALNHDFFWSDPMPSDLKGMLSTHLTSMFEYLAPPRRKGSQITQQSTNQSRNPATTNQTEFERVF
T2 sequence (O60563 whole entry partner): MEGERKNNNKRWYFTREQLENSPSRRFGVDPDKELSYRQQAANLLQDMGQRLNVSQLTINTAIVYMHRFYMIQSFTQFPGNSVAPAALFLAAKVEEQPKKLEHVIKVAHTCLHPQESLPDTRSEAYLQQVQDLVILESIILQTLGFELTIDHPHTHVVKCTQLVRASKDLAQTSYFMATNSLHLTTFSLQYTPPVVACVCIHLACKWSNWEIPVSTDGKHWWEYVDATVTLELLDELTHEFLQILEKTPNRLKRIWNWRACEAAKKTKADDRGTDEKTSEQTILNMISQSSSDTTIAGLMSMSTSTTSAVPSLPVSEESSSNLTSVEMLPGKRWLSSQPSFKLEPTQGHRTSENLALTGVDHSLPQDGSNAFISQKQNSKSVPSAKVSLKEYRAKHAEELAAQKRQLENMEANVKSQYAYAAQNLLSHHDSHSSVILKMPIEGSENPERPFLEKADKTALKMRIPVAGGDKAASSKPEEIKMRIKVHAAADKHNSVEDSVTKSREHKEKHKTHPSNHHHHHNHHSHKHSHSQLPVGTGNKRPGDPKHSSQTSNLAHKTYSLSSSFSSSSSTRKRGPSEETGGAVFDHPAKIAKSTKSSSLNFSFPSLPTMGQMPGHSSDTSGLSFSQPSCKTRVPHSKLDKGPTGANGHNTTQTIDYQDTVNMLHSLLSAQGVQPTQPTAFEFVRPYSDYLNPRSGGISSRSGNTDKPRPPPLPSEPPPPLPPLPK
Description: as §1

IC50 (OCI-AML5 cells): 56 nM | IC50 ([1]; read-out: IC50, sh CDK1): 69.6 nM and 111 nM and 91.9 nM | IC50 ([1]; read-out: IC50, sh CDK2): 67.6 nM and 80.5 nM and 96.4 nM | IC50 ([1]; read-out: IC50, sh CDK4): 61.8 nM and 75.2 nM and 63.5 nM | IC50 ([1]; read-out: IC50, sh CDK7): 61.1 nM and 84.1 nM and 69.1 nM | IC50 ([1]; read-out: IC50, sh CDK9): 55.2 nM and 60.8 nM and 44.9 nM | IC50 ([1]; read-out: IC50, sh Cyclin K): 13.1 nM and 15.5 nM and 20.6 nM | IC50 ([1]; read-out: IC50, sh ctrl): 55.8 nM and 70.4 nM and 56.2 nM | in vitro inhibition of CDK12/Cyclin K activity (CDK12/Cyclin K; Log10 (uM) 1): 58.77 and 64.89 and 109.89 | in vitro inhibition of CDK12/Cyclin K activity (CDK12/Cyclin K; Log10 (uM) 1.69897): 81.16 and 77.06 and 130.98 | in vitro inhibition of CDK12/Cyclin K activity (CDK12/Cyclin K; Log10 (uM) -0.39794): 16.88 and 18.59 and 15.49 | % CDK9 inhibition (CDK9/CyclinT): 100%
SMILES: CC[C@H](CO)Nc1nc(NCc2ccc(-c3ccccn3)cc2)c2ncn(C(C)C)c2n1 [CR8]
MFI of cyclin KeGFP over mCherry (cyclin KeGFP; OCI-AML5 G7 clone, 3 h, 10 μM, normalized to DMSO (=100)): 13.6 and 15.4 and 15.2 and 15.3 and 14.9 | % degradation cyclin K-eGFP (cyclin KeGFP; cyclin K-eGFP reporter): 86% | IC50 (primary AML specimens; primary AML specimen 03H109): 48.5 nM | IC50 (primary AML specimens; primary AML specimen 04H055): 123 nM | IC50 (primary AML specimens; primary AML specimen 04H096): 55 nM | IC50 (primary AML specimens; primary AML specimen 04H138): 127 nM | IC50 (primary AML specimens; primary AML specimen 05H113): 48.9 nM | IC50 (primary AML specimens; primary AML specimen 05H149): 66.3 nM | IC50 (primary AML specimens; primary AML specimen 05H193): 63.3 nM | IC50 (primary AML specimens; primary AML specimen 06H088): 74.7 nM | IC50 (primary AML specimens; primary AML specimen 06H117): 60.2 nM | IC50 (primary AML specimens; primary AML specimen 06H151): 43 nM | IC50 (primary AML specimens; primary AML specimen 07H003): 129 nM | IC50 (primary AML specimens; primary AML specimen 07H131): 154 nM | IC50 (primary AML specimens; primary AML specimen 07H144): 51.9 nM | IC50 (primary AML specimens; primary AML specimen 07H155): 144 nM | IC50 (primary AML specimens; primary AML specimen 08H018): 124 nM | IC50 (primary AML specimens; primary AML specimen 08H021): 53.6 nM | IC50 (primary AML specimens; primary AML specimen 08H056): 136 nM | IC50 (primary AML specimens; primary AML specimen 08H063): 149 nM | IC50 (primary AML specimens; primary AML specimen 08H085): 63.1 nM | IC50 (primary AML specimens; primary AML specimen 08H108): 126 nM | IC50 (primary AML specimens; primary AML specimen 08H118): 50.2 nM | IC50 (primary AML specimens; primary AML specimen 09H016): 51.5 nM | IC50 (primary AML specimens; primary AML specimen 09H070): 140 nM | IC50 (primary AML specimens; primary AML specimen 10H014): 38.9 nM | IC50 (primary AML specimens; primary AML specimen 10H046): 59.9 nM | IC50 (primary AML specimens; primary AML specimen 10H107): 76.8 nM | IC50 (primary AML specimens; primary AML specimen 10H127): 93.5 nM | IC50 (primary AML specimens; primary AML specimen 10H161): 75.2 nM | IC50 (primary AML specimens; primary AML specimen 10H174): 54.8 nM | IC50 (primary AML specimens; primary AML specimen 11H008): 85.8 nM | IC50 (primary AML specimens; primary AML specimen 11H019): 69.4 nM | IC50 (primary AML specimens; primary AML specimen 11H170): 162 nM | IC50 (primary AML specimens; primary AML specimen 11H217): 128 nM | IC50 (primary AML specimens; primary AML specimen 11H232): 70.1 nM | IC50 (primary AML specimens; primary AML specimen 12H033): 107 nM | IC50 (primary AML specimens; primary AML specimen 12H055): 100 nM | IC50 (primary AML specimens; primary AML specimen 12H148): 74.2 nM | IC50 (primary AML specimens; primary AML specimen 13H053): 133 nM | IC50 (primary AML specimens; primary AML specimen 15H045): 43.7 nM | IC50 (primary AML specimens; primary AML specimen 17H065): 92.3 nM | Class ([1]; class from shRNA IC50 profile and cyclin K-eGFP degradation): 1
